According to ChEMBL document CHEMBL3507680, “University of Dundee, Gates Library screen for HepG2 cell viability”:

Test: Human HepG2 cell viability assay in 384 well format
Format: toxicity, cell-based
Set-up: dose 125 nL, time 70.5 hour; concentration not given beside the values
Settings: HepG2 cells, read-out: Inhibition

Structure (SMILES)	cytotoxicity at 70.5 h
CCc1ccc2nc(NCCCN(CCO)CCO)cc(C)c2c1	-3.69%
CCn1c(N)nc2cc(C(=O)N3CCCN(C)CC3)cnc21	3.17%
Cc1cc(C)c(C#N)c(N2CCC3(CCCN(CCO)C3=O)C2)n1 (stereo not drawn)	12.1%
c1cncc(C[C@@H]2CC[C@H](CN3CCCOCC3)O2)c1	-10.6%
O=C(CSCC1CC1)N1CCCC(c2nccn2Cc2cccnc2)C1 (stereo not drawn)	-9.29%
O=C1CCC2(CCCN(Cc3nnc(C4CC4)o3)C2)CN1CCO (stereo not drawn)	3.23%
COCC(=O)N1CCCN(Cc2cc(C(C)C)no2)CC1	12.3%
CC(=O)NCCNC(=O)CCn1c(C)cc2ccccc21	-3.8%
COC(=O)c1ccc(N2CCN(C(=O)CCCc3cn[nH]c3)CC2)cc1	-2.65%
CCN(C(C)=O)C1CCN(c2nccc(C3CCCC3)n2)C1 (stereo not drawn)	-30.2%
CCc1cc(N(C)CCc2c(C)n[nH]c2C)ncn1	26.8%
Cc1cc2[nH]c(CN3CCOC(c4ccc(F)cc4)C3)cc(=O)n2n1 (stereo not drawn)	-3.51%
Cc1nc2c(c(=O)n1C)CCN(C(=O)CCc1ccccc1O)CC2	-6.87%
CN(Cc1ccc2nsnc2c1)C(=O)Cn1ncc(N(C)C)cc1=O	-7.03%
Cc1nn(C)c2nc(NCCN3CCCC(C(N)=O)C3)sc12 (stereo not drawn)	-13.4%
Cn1ncc2c(N3CCCC(C)(O)C3)nc(C(C)(C)C)nc21 (stereo not drawn)	-7.72%
COCCn1cnnc1CN(C)c1nc(N)ncc1C	-14.6%
Cc1nc(NC(=O)NC2CC(=O)N(C(C)C)C2)nn1C(C)C (stereo not drawn)	-0.942%
CC(C)C1CN(Cc2nccn2C(C)C)CCC(=O)N1CC1CC1 (stereo not drawn)	0.0298%
CC(C)N1C[C@H](NC(=O)c2coc(COc3cccc(F)c3)n2)[C@@H](O)C1	2.02%
COc1ccc(-n2c(CCC(=O)O)nc3ccccc32)cc1CO	4.28%
O=C(CN1C(=O)CCNC1=O)N1CCC2(CCc3ccccc32)CC1	16.2%
O=c1cc(N2CCCC2)cnn1CCc1cccc(F)c1	34.6%

Structure (SMILES)	cytotoxicity at 70.5 h
COCc1noc(CCNC(=O)c2ccc(C3CCCO3)s2)n1 (stereo not drawn)	8.28%
CN1CCCC2(CCN(C(=O)Cn3ncc4ccccc4c3=O)C2)C1=O (stereo not drawn)	9.09%
CCc1ncc(C(=O)N(CC)CCOC)cn1	-1.19%
COc1nc2ccn(CCc3scnc3C)c(=O)c2cc1C#N	-4.15%
OCC1(Cc2cccc(Cl)c2)CCCN(c2ncccn2)C1 (stereo not drawn)	28.5%
CC1(Cc2ccccn2)NCCc2[nH]cnc21 (stereo not drawn)	-1.72%
O=C(O)CC[C@@H]1CN(c2ncccc2F)CC[C@@H]1N1CCOCC1	-8.92%
COCCC(=O)N(C)CCC1=CCN(C)CC1	33%
O=C(NCc1ccc2[nH]c(=O)[nH]c2c1)c1ccc(CN2CCCC2)o1	-9.98%
Cc1cc(CN(C)C(=O)C(c2ccccc2F)N(C)C)ccn1 (stereo not drawn)	-7.87%
CC(C)n1ccnc1C1CCN(c2nccc(C(F)(F)F)n2)CC1	5.98%
COc1ccc(Cc2noc(-c3ccc(NC(C)CO)nc3)n2)cc1 (stereo not drawn)	3.07%
CC(C)(O)c1cn(C2CCN(C(=O)CCC(F)(F)F)CC2)nn1	-2.56%
CCC(C)N(Cc1cnc(NC(C)C)nc1)Cc1ccsc1 (stereo not drawn)	-4.23%
Cc1nc(CN2CCC(C(=O)O)(n3ccc(C(C)C)n3)CC2)co1	-0.222%
Cc1cc(C)c2c(c1)NC(=O)C2CC(=O)O (stereo not drawn)	-4.36%
CCOCCNC(=O)C1CCC(=O)N(CCc2ccc(Cl)cc2)C1 (stereo not drawn)	-3.36%
CC(C)CN(Cc1ccc(C(F)(F)F)nc1)Cc1cnn(C)c1	-3.14%
O=C(c1ccc(S(=O)(=O)N2CCNCC2)cc1)N1CCCC(O)C1 (stereo not drawn)	-16.1%
COc1cc2c(cc1CN1CCC3(CCCN(C)C3=O)C1)OCCO2 (stereo not drawn)	-15.9%
CC(Nc1nccc(CCC(F)(F)F)n1)c1nc(-c2ccccn2)no1 (stereo not drawn)	-2.61%
CCNC(=O)[C@@H]1C[C@H](NC(=O)c2cc(=O)[nH]c3ccc(C)cc23)CN1C	-7.81%
Cn1c(Cn2ncc(N3CCCC3)cc2=O)nc2ccccc21	25.6%

Structure (SMILES)	cytotoxicity at 70.5 h
Cn1nc(C2CC2)c2c1NC(=O)CC2c1cc(CN2CCCC2)cs1 (stereo not drawn)	-8.83%
c1ccc(SCCN2CCN(CCn3cncn3)CC2)cc1	-22.3%
c1ccc(CN2C[C@H]3CC[C@@H]2CN(Cc2nnc(C4CC4)o2)C3)cc1	-1.91%
O=C(Cn1cccc1)NCC1CCN(Cc2cc3ccccc3[nH]2)C1 (stereo not drawn)	-16.5%
COCCCC1(CO)CCCN(Cc2ccc(F)c(OC)c2)C1 (stereo not drawn)	9.96%
CCCc1nc(C)c(CNc2nc(C)nc3oc(C)nc23)s1	-8.14%
CCc1cc(NC2CCOCC2)n2nc(C)c(C)c2n1	-10.6%
COCCOC1CCN(C(C(=O)O)c2ccc(OC)c(F)c2)CC1 (stereo not drawn)	-6%
O=C(c1ccoc1)N1CCCN(C(=O)c2ccc(C3CCCN3)s2)CC1 (stereo not drawn)	-7.17%
CN(C)CC1(O)CCN(Cc2cnc3c(-c4ccccc4)cnn3c2)C1 (stereo not drawn)	-4.22%
CC(N)C(=O)N1CCC(Oc2cccc(C(F)(F)F)c2)CC1 (stereo not drawn)	11.5%
Cc1cnc(CNC(=O)C2CCOc3ccccc3C2)cn1 (stereo not drawn)	-19.3%
CN1CCN(Cc2cnc(S(=O)(=O)CC3CC3)n2CC2CCCO2)CC1 (stereo not drawn)	-4.87%
Cn1ccnc1CN1C[C@@H](CN2CCCCC2)[C@@H](CO)C1	-6.64%
COc1ccc(CN2CCC3(CCCNC3)C2)cc1Cn1cccn1 (stereo not drawn)	3.97%
CCN(C)CC(C)Cn1cnc(-c2ccccc2)c1C (stereo not drawn)	-15.1%
CC[C@@]1(O)CCN(c2ncc(Cl)cc2F)C[C@H]1O	-13.4%
CCCc1cc(CNC2CCN(c3nc(C)cc(C)n3)CC2)on1	-5.05%
CCC[C@@H]1CN(C(=O)c2cc3ccccc3s2)C[C@H]1NS(C)(=O)=O	-2.51%
CCN(C)C(=O)CN1CCC(c2cc(N3CCOCC3)nc(C)n2)CC1	-6.04%
Cc1ccc(C)c(OCc2cc(C(=O)N(C)CC(O)CO)no2)c1 (stereo not drawn)	-4.59%
CCc1ncc(S(C)(=O)=O)c(C2CCCNC2)n1 (stereo not drawn)	-5.94%
CN(CCc1ccccc1)c1cnn(CC2COCCO2)c(=O)c1 (stereo not drawn)	-4.1%

Structure (SMILES)	cytotoxicity at 70.5 h
Cc1ccc(-c2c(-c3ccccc3)ncn2CCCN2CCOCC2)o1	-11.8%
OC1CCCN(CCNc2ncc(Cl)cc2F)C1 (stereo not drawn)	16.2%
CO[C@H]1CNC[C@@H]1NC(=O)c1cc(C)nc2c(C)c(C)ccc12	5.29%
Cc1nc(CN2CCN(C(=O)C(c3ccccc3C)N(C)C)CC2)no1 (stereo not drawn)	-7.12%
Cn1c(N2CCOCC2)nc2cc(C(=O)N3CCCOCC3)ccc21	-12.1%
Cc1ccccc1CN1CCN(C(=O)c2ccn(C(C)(C)C)c2)CC1	16.3%
Cc1nc(C(=O)N2CCCCC2c2ccc(CN(C)C)cc2)c(C)o1 (stereo not drawn)	-4.13%
CCN(CCN(C)C)c1nc(CCN)nc2sc(C)c(C)c12	8.66%
O=C(NC[C@@H]1CCCO1)c1ccc(S(=O)(=O)N[C@@H]2CCNC2)cc1	6%
CCCc1n[nH]cc1C(=O)NCC1COc2cc(OC)ccc2C1 (stereo not drawn)	14.2%
CCc1nc(C)sc1CN1CC[C@@](O)(CCOC)[C@H](C)C1	-5.48%
Cc1nccn1CCCN1CCCC(c2ccccc2)C1 (stereo not drawn)	-1.68%
O=C(c1cccs1)N1CC(Oc2ccccc2Cl)C1	-0.814%
CNc1ncccc1C(=O)N1CCCC2(CCN(C)CC2)CC1	-1.7%
COc1ccc(OC)c(C2CCN(CC(C)(C)N3CCOCC3)C2)c1 (stereo not drawn)	-4.45%
CC(C)C1CN(C(=O)c2cn3ccccc3n2)CCCN1CC1CC1 (stereo not drawn)	-10.1%
c1ccc(OCCSC2=NCCN2)cc1	-2.35%
Cc1nc(-c2nnc(SCC(=O)O)n2C(C)c2ccccc2)co1 (stereo not drawn)	-10%
Cc1nc(O)cc(C2CCCN(C(=O)COCc3ccccc3)C2)n1 (stereo not drawn)	1.06%
CCOCCC(=O)N(C)CC1Cc2ccccc2CN1C (stereo not drawn)	-0.994%
CCCn1c(C)c(CC(=O)NC(C)(C)CO)c2c1CC(C)(C)CC2=O	0.294%
Cc1ccc(C(=O)N2CCCC(N)CC2)cc1N1CCNC1=O (stereo not drawn)	-2.27%
O=C(O)[C@@H]1CN(C(=O)CCc2ccccn2)C[C@H]1c1ccccc1	-4.59%

Structure (SMILES)	cytotoxicity at 70.5 h
c1cc(CCNc2ncnc3c2CCN(Cc2ccoc2)CC3)ccn1	0.564%
COCCCN1C(=O)CC[C@H]2CN(Cc3ccc4occc4c3)CC[C@H]21	26.4%
COC(C)(C)C(=O)NCC1CCN(Cc2cc3ccccc3[nH]2)C1 (stereo not drawn)	-17.4%
COCCNc1nc2c(c(NCc3cnc(C)c(C)c3)n1)CCNCC2	-3.2%
Cc1cc(N2Cc3cnn(CCO)c3C2)nc(-c2ccccc2O)n1	-4.43%
c1cn(CC2CCOCC2)c(-c2cc(CN3CCCC3)cs2)n1	-3.55%
COCCC1(C(=O)O)CCN(c2cc(C)c3ccccc3n2)CC1	18.8%
CN(C)C(C(=O)NCC1(Cn2cccn2)CC1)c1ccc(F)cc1 (stereo not drawn)	3.72%
COc1ccc([C@@H]2CN(Cc3ccncc3)C[C@H]2N(C)C)cc1	-9.42%
O=C(O)[C@@H]1CN(C(=O)NCC2CCCCC2)C[C@H]1c1ccccn1	-2.76%
CCCOCC1CCN(C(=O)c2cnc(C)nc2O)C1 (stereo not drawn)	-2.13%
CSc1nccc(N2CCC(NCCN3CCOCC3)CC2)n1	-6.94%
COc1ccccc1C(C(=O)O)N1CCCN(C2CCCC2)CC1 (stereo not drawn)	16.1%
O=C(NC1CC1)[C@H]1[C@@H]2CN(Cc3ccc(-c4ccn[nH]4)s3)C[C@@H]21	0.292%
O=C1CC[C@@H](C(=O)N2CCc3[nH]nc(COc4cccc(Cl)c4)c3C2)N1	-8.37%
Oc1cccc(CN2CCN(C3CCc4ccccc4C3)CC2)c1 (stereo not drawn)	19.8%
CCO[C@H]1C[C@@H](O)C12CCN(C(=O)CN1CCCCCC1=O)CC2	6.65%
Cc1nc(N(C)C)nc(NCCc2c[nH]cn2)c1C	23.7%
CN(C)C1CCN(c2cc(-c3ccccc3)nc3ccnn23)C1 (stereo not drawn)	5.02%
Cc1nc2c(c(=O)n1C)CN(C(=O)C1CCCN(CC(N)=O)C1)C2 (stereo not drawn)	8.71%
COC(=O)c1ccc(CN(C(C)C)C(C)C)o1	-2.95%
